Source: patent US20060029548A1, “Methods of diagnosing, monitoring and treating pulmonary diseases” (priority 2004, published 2006)

Key:
[1] = system: vagal action potentials elicited by ATP; conditions: dog; cited from earlier work
[2] = system: pulmonary vagal afferent A fibers (P2X3/P2X2/3-receptors); experiment: Perfused nerve-lung preparation: action potentials in A fibers; assay type: cell-based, guinea pig; conditions: A fibers (n=7); 10 μM, 1 mL bolus; mean±SD
Description: (§1) The method for the extracellular recording of the activity of vagal sensory neurons projecting to guinea pig lungs -has been described in detail previously in Canning et al. [(2004) J. Physiol. 557:543-545], which is incorporated herein by reference in its entirety. Briefly, male Hartley guinea pigs (100-200 g) were killed with CO2 inhalation and exsanguination. The blood from the pulmonary circulation was washed out by in situ perfusion with Krebs' bicarbonate solution (KBS; comprised of 118 mM NaCl, 5.4 mM KCl, 1.0 mM NaH2PO4, 1.2 mM MgSO4, 1.9 mM CaCl2, 25.0 mM NaHCO3, 11.1 mM dextrose, and gassed with 95% O2-5% CO2 at pH7.4). The KBS contained 3 uM indomethacin to reduce the indirect influence of tissue prostanoids on sensory fiber activity. Trachea and right lungs, having intact right-side extrinsic vagal innervation by the inclusion, e.g., of right jugular and nodose ganglia, were dissected from the exsanguinated guinea pigs and placed in a two-compartment tissue bath. The right nodose and jugular ganglia, along with the rostral vagus nerve, were placed into one compartment of the tissue bath whereas the lung and trachea were placed into the second compartment of the tissue bath. The two compartments were separately superfused with KBS (6 ml min^−1, at 37° C.).
(§2) The pulmonary artery and trachea were cannulated with polyethylene (PE) tubing and continuously perfused with KBS (4 ml min^−1 and 2 ml min^−1, respectively). […]
(§3) Once a mechanosensitive receptive field was identified, a brief [<1 millisecond (ms)] electrical stimulus was delivered by a small concentric electrode that was positioned over a discrete region of the mechanosensitive receptive field to determine the conduction velocity of the fiber. […] Conduction velocity was calculated by dividing the distance along the nerve pathway by the time between the shock artifact and the action potential evoked by electrical stimulation of the mechanosensitive receptive field. […]

[3] = system: pulmonary vagal afferent C fibers (P2X3/P2X2/3-receptors); experiment: Perfused nerve-lung preparation: action potentials in C fibers; assay type: cell-based, guinea pig; conditions: C fibers (n=4); 10 μM, 1 mL bolus; mean±SD
Description: as §1, §2, §3

[4] = system: pulmonary RAR-containing afferent nerve fiber; experiment: Vagal activation experiments in dogs: action potentials in RAR-containing fibers; assay type: in vivo; conditions: anesthetized dog
Description: (§4) The experiments described in Example 5 were performed essentially as described in Pelleg et al. [(1996) J. Physiol. 490(1):265-275] and U.S. Pat. No. 5,874,420, both of which are incorporated herein by reference in their entirety. In brief, they were performed on anesthetized (sodium pentobarbitone, 30 mg kg^−1 plus 3 mg kg^−1 h^−1, intravenous) dogs artificially ventilated with room air using a respirator. Arterial blood pH, PO2, PCO2, body temperature were maintained as described in U.S. Pat. No. 5,874,420. A peripheral vein was cannulated for the administration of physiological saline solution and maintenance doses of anesthetic. Catheters were introduced via the femoral vein and left atrial appendage and positioned in the right atrium and left atrium for the administration of test solutions. The chest was opened by a longitudinal sternotomy. The right cervical vagosympathetic trunk was exposed by a midcervical longitudinal section of the skin and careful dissection of neck muscles and connective tissues. The edges of the cut skin were elevated and secured to create a trough which was filled with warm (about 37° C.) mineral oil. A section of the vagosympathetic trunk was placed on a small plate of black Perspex™ and fine branches were separated from the main bundle by careful dissection using microsurgical tools and a dissecting microscope (Model F212, Jenopik Jena, GmbH, Germany).
Extracellular neural action potentials were recorded using a custom-made bipolar electrode that contained two platinum-iridium wires (1.25 cm×0.0125 cm) connected to a high-impedence first-stage differential amplifier (model AC8331, CW, Inc., Ardmore, Pa.) via a shielded cable. The output of the first-stage amplifier was fed into a second-stage differential amplifier (model BMA-831/C, CWE, Inc.). Isolated fibers were laid on the pair of platinum-iridium wires. Vagal C fibers with chemosensitive endings have a sparse irregular discharge which is not associated with cardiac or respiratory cycles. Confirmation of fiber type was obtained by: first monitoring the response to capsaicin (10 microg kg^−1, intra-right atrial bolus); second, monitoring the response to mechanical stimulation of the lungs using gentle probing with forceps as well as inflation of the lungs to 2-3 times the tidal volume; and third, determining the speed of conduction using a stimulating electrode positioned distal to the initial recording site. Nerve fibers with RAR on their pulmonary endings, spontaneously fire a brief (i.e., short lasting) volley of action potentials associated with peak tracheal pressure during each respiratory cycle.
[…] Volume controls consisted of either 5 ml+5 ml or 1 ml+3 ml physiological saline. All injections were performed in the same mode by the same person. To exclude involvement of baroreceptors in the recorded neural activity, the latter was monitored before and after a bolus of nitroglycerine (1 mg; intravenous).
The procedure described in Example 1 was used to measure action potentials in dog pulmonary fibers with RAR on their terminals following administration of various agents. RAR activation generated a brief volley of action potentials associated with each respiratory cycle that was seen before as well as after administration of ATP (FIG. 7). […] Thus ATP modified the activity of the RAR-containing fiber manifested in their transient loss of the rapid adaptability characteristic.

vagal C fiber = experiment: Vagal activation experiments in dogs: action potentials in vagal C fibers; assay type: in vivo; conditions: anesthetized dog, rapid bolus; simultaneous recording with RAR-containing fiber
Description: as §4
Extracellular neural action potentials were recorded using a custom-made bipolar electrode that contained two platinum-iridium wires (1.25 cm×0.0125 cm) connected to a high-impedence first-stage differential amplifier (model AC8331, CW, Inc., Ardmore, Pa.) via a shielded cable. The output of the first-stage amplifier was fed into a second-stage differential amplifier (model BMA-831/C, CWE, Inc.). Isolated fibers were laid on the pair of platinum-iridium wires. Vagal C fibers with chemosensitive endings have a sparse irregular discharge which is not associated with cardiac or respiratory cycles. […]
ATP (3 umole kg^−1) and capsaicin (10 ug kg^−1) were administered as a rapid bolus into the right atrium (5 ml test solution+5 ml physiological saline flush). α,βmATP and β,γmATP were given as one low dose only (0.75 umol kg^−1) to avoid systemic side effects. […] To exclude involvement of baroreceptors in the recorded neural activity, the latter was monitored before and after a bolus of nitroglycerine (1 mg; intravenous). […]

SMILES | effect on number of vagal action potentials elicited by ATP [1] | frequency of the generated action potentials [2] [discharge/sec] | frequency of the generated action potentials [3] [discharge/sec] | potency relative to ATP ([4]; FIG. 9) | effect on action potentials of RAR-containing fibers ([4]; rapid bolus, ATP 6 μmol/kg, capsaicin 10 ug kg−1, analogs 0.75 umol kg−1) | effect on action potentials of C fibers (vagal C fiber)
Cc1nc(N=Nc2ccc(S(=O)(=O)O)cc2S(=O)(=O)O)c(COP(=O)(O)O)c(C=O)c1O [PPADS, pyridoxalphosphate-6-azophenyl-2′4′-disulphonic acid] | reduced the number of vagal action potentials |  |  |  |  | 
Nc1ncnc2c1ncn2[C@@H]1O[C@H](COP(=O)(O)CP(=O)(O)OP(=O)(O)O)[C@@H](O)[C@H]1O [α,βmATP, α,β-methylene ATP] |  | 1543±285 | 146±29 | more potent than ATP | acted similarly to ATP | acted similarly to ATP
